Experimental data: PubChem BioAssay (NCI)
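Where inhibition never reached the appropriate level, the endpoint shown equals the highest concentration tested. Otherwise, values were interpolated linearly from a five-concentration, 48-hour dose response in 96-well plates. GI50 = concentration required for 50% inhibition of growth. TGI marks complete inhibition of growth.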

What was measured:
Assay in all cases: NCI tumour cell line growth inhibition, 48 h
786-0 renal = tested on: 786-0 renal
A498 renal = tested on: A498 renal
A549 NSCLC = tested on: A549 NSCLC
ACHN renal = tested on: ACHN renal
BT-549 breast = tested on: BT-549 breast
CAKI-1 renal = tested on: CAKI-1 renal
CCRF-CEM leukemia = tested on: CCRF-CEM leukemia
COLO 205 colon = tested on: COLO 205 colon
DU-145 prostate = tested on: DU-145 prostate
EKVX NSCLC = tested on: EKVX NSCLC
HCC-2998 colon = tested on: HCC-2998 colon
HCT-116 colon = tested on: HCT-116 colon
HCT-15 colon = tested on: HCT-15 colon
HL-60(TB) leukemia = tested on: HL-60(TB) leukemia
HOP-62 NSCLC = tested on: HOP-62 NSCLC
HOP-92 NSCLC = tested on: HOP-92 NSCLC
HS 578T breast = tested on: HS 578T breast
HT29 colon = tested on: HT29 colon
IGROV1 ovarian = tested on: IGROV1 ovarian
K-562 leukemia = tested on: K-562 leukemia
KM12 colon = tested on: KM12 colon
LOX IMVI melanoma = tested on: LOX IMVI melanoma
M14 melanoma = tested on: M14 melanoma
MALME-3M melanoma = tested on: MALME-3M melanoma
MCF7 breast = tested on: MCF7 breast
MDA-MB-231 breast = tested on: MDA-MB-231 breast
MDA-MB-435 = tested on: MDA-MB-435
MDA-MB-468 breast = tested on: MDA-MB-468 breast
MOLT-4 leukemia = tested on: MOLT-4 leukemia
NCI-H226 lung = tested on: NCI-H226 lung
NCI-H23 lung = tested on: NCI-H23 lung
NCI-H460 lung = tested on: NCI-H460 lung
NCI-H522 lung = tested on: NCI-H522 lung
OVCAR-3 ovarian = tested on: OVCAR-3 ovarian
OVCAR-4 ovarian = tested on: OVCAR-4 ovarian
OVCAR-8 ovarian = tested on: OVCAR-8 ovarian
PC-3 prostate = tested on: PC-3 prostate
RPMI-8226 leukemia = tested on: RPMI-8226 leukemia
RXF 393 renal = tested on: RXF 393 renal
SF-268 CNS = tested on: SF-268 CNS
SF-295 CNS = tested on: SF-295 CNS
SF-539 CNS = tested on: SF-539 CNS
SK-MEL-2 melanoma = tested on: SK-MEL-2 melanoma
SK-MEL-28 melanoma = tested on: SK-MEL-28 melanoma
SK-MEL-5 melanoma = tested on: SK-MEL-5 melanoma
SK-OV-3 ovarian = tested on: SK-OV-3 ovarian
SN12C renal = tested on: SN12C renal
SNB-19 CNS = tested on: SNB-19 CNS
SR leukemia = tested on: SR leukemia
SW-620 colon = tested on: SW-620 colon
T-47D breast = tested on: T-47D breast
TK-10 renal = tested on: TK-10 renal
U251 CNS = tested on: U251 CNS
UACC-257 melanoma = tested on: UACC-257 melanoma
UACC-62 melanoma = tested on: UACC-62 melanoma
UO-31 renal = tested on: UO-31 renal

## COc1cc(/C=C/C(=O)c2cnn(-c3cc(=O)[nH]c4ccccc34)c2C)cc(OC)c1OC
786-0 renal
  GI50: 4.56 µM
  TGI: 28.9 µM
A498 renal
  GI50: 34.2 µM
  TGI: > 100 µM
A549 NSCLC
  GI50: 3.78 µM
  TGI: > 100 µM
ACHN renal
  GI50: 3.72 µM
  TGI: 25.5 µM
BT-549 breast
  GI50: 3.48 µM
  TGI: 24.9 µM
CAKI-1 renal
  GI50: 4.05 µM
  TGI: > 100 µM
CCRF-CEM leukemia
  GI50: 2.58 µM
  TGI: 21.5 µM
COLO 205 colon
  GI50: 3.71 µM
  TGI: 17.5 µM
DU-145 prostate
  GI50: 4.21 µM
  TGI: > 100 µM
EKVX NSCLC
  GI50: 3.42 µM
  TGI: > 100 µM
HCC-2998 colon
  GI50: 4 µM
  TGI: > 100 µM
HCT-116 colon
  GI50: 7.13 µM
  TGI: > 100 µM
HCT-15 colon
  GI50: 3.23 µM
  TGI: 26.1 µM
HL-60(TB) leukemia
  GI50: 3.52 µM
  TGI: > 100 µM
HOP-62 NSCLC
  GI50: 4.43 µM
  TGI: 27.1 µM
HOP-92 NSCLC
  GI50: 7.59 µM
  TGI: 51.8 µM
HS 578T breast
  GI50: 4.54 µM
  TGI: > 100 µM
HT29 colon
  GI50: 3.14 µM
  TGI: > 100 µM
IGROV1 ovarian
  GI50: 3 µM
  TGI: 16.3 µM
K-562 leukemia
  GI50: 2.68 µM
  TGI: > 100 µM
KM12 colon
  GI50: 3.83 µM
  TGI: > 100 µM
LOX IMVI melanoma
  GI50: 2.1 µM
  TGI: 5.64 µM
M14 melanoma
  GI50: 4.45 µM
  TGI: > 100 µM
MALME-3M melanoma
  GI50: 5.84 µM
  TGI: > 100 µM
MCF7 breast
  GI50: 2.88 µM
  TGI: > 100 µM
MDA-MB-231 breast
  GI50: 3.06 µM
  TGI: 14.1 µM
MDA-MB-435
  GI50: 3.34 µM
  TGI: > 100 µM
MDA-MB-468 breast
  GI50: 2.22 µM
  TGI: 6.06 µM
MOLT-4 leukemia
  GI50: 3.28 µM
  TGI: > 100 µM
NCI-H226 lung
  GI50: 5.24 µM
  TGI: 47.8 µM
NCI-H23 lung
  GI50: 2.66 µM
  TGI: 7.98 µM
NCI-H460 lung
  GI50: 2.55 µM
  TGI: 7.29 µM
NCI-H522 lung
  GI50: 3.74 µM
  TGI: 39.8 µM
OVCAR-3 ovarian
  GI50: 3.57 µM
  TGI: > 100 µM
OVCAR-4 ovarian
  GI50: 5.48 µM
  TGI: > 100 µM
OVCAR-8 ovarian
  GI50: 2.11 µM
  TGI: 5.09 µM
PC-3 prostate
  GI50: 7.39 µM
  TGI: > 100 µM
RPMI-8226 leukemia
  GI50: 2.99 µM
  TGI: > 100 µM
RXF 393 renal
  GI50: 2.65 µM
  TGI: 8.21 µM
SF-268 CNS
  GI50: 4.26 µM
  TGI: > 100 µM
SF-295 CNS
  GI50: 2.95 µM
  TGI: 18.1 µM
SF-539 CNS
  GI50: 2.01 µM
  TGI: 4.84 µM
SK-MEL-2 melanoma
  GI50: 2.89 µM
  TGI: 10.2 µM
SK-MEL-28 melanoma
  GI50: 4.94 µM
  TGI: > 100 µM
SK-MEL-5 melanoma
  GI50: 3.51 µM
  TGI: 14.7 µM
SK-OV-3 ovarian
  GI50: 5.03 µM
  TGI: 35.9 µM
SN12C renal
  GI50: 2.2 µM
  TGI: 8.36 µM
SNB-19 CNS
  GI50: 5.23 µM
  TGI: > 100 µM
SR leukemia
  GI50: 3.82 µM
  TGI: > 100 µM
SW-620 colon
  GI50: 3.59 µM
  TGI: > 100 µM
T-47D breast
  GI50: 2.8 µM
  TGI: > 100 µM
TK-10 renal
  GI50: 4.62 µM
  TGI: > 100 µM
U251 CNS
  GI50: 2.74 µM
  TGI: 13.6 µM
UACC-257 melanoma
  GI50: 7.03 µM
  TGI: > 100 µM
UACC-62 melanoma
  GI50: 5.18 µM
  TGI: 20.5 µM
UO-31 renal
  GI50: 4.03 µM
  TGI: 37.1 µM
